Data published in patent publication US20240238398A1, “IMMUNOGENIC COMPOSITION” (GRIFFITH UNIVERSITY, priority 2021, published 2024).

What was measured:
B. microti [1] = assay: In vivo assessment of chemically attenuated B. microti pRBCs in BALB/c mice; settings: intravenous inoculation
Method: FIG. 1: In vivo assessment of chemically attenuated B. microti pRBCs. A and B. To assess attenuation of B. microti parasitized red blood cells (pRBCs), BALB/c mice (n=5/group) were injected intravenously with 10^6 pRBCs treated with 2 μM, 200 nM or 20 nM of Tafuramycin-A (TF-A). Control mice received 10^6 untreated pRBCs. C and D. The impact of parasite dose on protection induced by a chemically attenuated whole parasite B. microti vaccine. BALB/c mice (n=5/group) were immunized intravenously on days 0, 14 and 28 with 10^4, 10^5 or 10^6 B. microti parasitized red blood cells (pRBCs) that were chemically attenuated with 2 μM of Tafuramycin-A (TF-A). Control mice received 10^6 TF-A treated normal mouse red blood cells (mRBCs). Mice were challenged with 10^6 B. microti pRBCs two weeks after the final immunization. (A and C: Parasitemias were monitored by microscopy post challenge. B and D: Mice were assessed for signs of disease and were scored based on defined criteria listed on a clinical scoresheet. Data are expressed as mean±SEM). […]
Chemical attenuation of B. microti with Tafuramycin-A (TF-A) was conducted as described previously (Good et al., 2013). […] A cell count was performed using a haemocytometer, the immunizing dose calculated, and the blood was resuspended in the required volume of PBS for injection. […]

B. microti [2] = assay: Assessment of chemically attenuated B. microti pRBCs in SCID mice; type: in vivo; settings: 10^6 B. microti pRBCs treated with 2 μM TF-A, intravenous, immunodeficient SCID mice
Method: FIG. 5: Assessment of chemically attenuated B. microti pRBCs in BALB/c and SCID mice. Related to FIGS. 1 and 2. BALB/c and SCID mice (n=5/group) were injected intravenously with 10^6 B. microti parasitized red blood cells (pRBCs) that were chemically attenuated with 2 μM of Tafuramycin-A (TF-A). Control mice received pRBCs that were not treated with TF-A. A. Parasitemia was monitored by microscopy post challenge. B. Mice were assessed for signs of disease and were scored based on defined criteria listed on a clinical scoresheet. Data are expressed as mean±SEM.
Chemical attenuation of B. microti with Tafuramycin-A (TF-A) was conducted as described previously (Good et al., 2013). Blood from mice infected with B. microti (as a source of pRBCs) and from naïve mice (as a source of mRBCs) were collected into EDTA tubes. TF-A was diluted to a 20 μM final concentration in RPMI-1640 with glutamine and added to a 25 cm^2 vented tissue culture flask to give a final TF-A concentration of 2 μM, 200 nM or 20 nM as required. One hundred microlitres of blood containing B. microti pRBCs or mRBCs was added into each flask, as required. […] A cell count was performed using a haemocytometer, the immunizing dose calculated, and the blood was resuspended in the required volume of PBS for injection. […]

Q: What does the source list for `COc1cc2cc(C(=O)N3CC(CCl)c4c3cc(O)c3ccoc43)[nH]c2c(OC)c1OC` (stereo not shown) [TF-A, seco-iso-cyclopropylfurano[2,3-e]indoline-TMI]?
A: microscopically patent parasitemia and clinical signs of infection (B. microti [1]; 10^6 B. microti pRBCs attenuated with 200 nM TF-A): did not develop microscopically patent parasitemia nor clinical signs of infection; microscopically patent parasitemia and clinical signs of infection (B. microti [1]; 10^6 B. microti pRBCs attenuated with 2 μM TF-A): did not develop microscopically patent parasitemia nor clinical signs of infection; signs of clinical disease (B. microti [2]): remained without signs of clinical disease; time microscopically clear of parasites (B. microti [2]): 70 days
